Tested on: Isolated Rat Bladder Strips
Test: Inhibition of contractions in isolated rat bladder strips (KCl-enhanced contractile activity; smooth muscle relaxation)
Type: cell-based, Sprague-Dawley rats
Details: 0.5 h; isolated rat bladder strips, 15 mM additional KCl, 30 minute challenge; read-out: IC50 (50% inhibition of pre-drug contractile activity)
From the text: The smooth muscle relaxing activity of the compounds of this invention was established in accordance with standard pharmaceutically accepted test procedures with representative compounds as follows:
Sprague-Dawley rats (150-200 g) are rendered unconscious by CO2 asphyxiation and then euthanized by cervical dislocation. The bladder is removed into warm (37 deg.C) physiological salt solution (PSS) of the following composition (mM): NaCl, 118.4; KCl, 4.7; CaCl2, 2.5; MgSO4, 4.7; H2 O, 1,2; NaHCO3, 24.9; KH2 PO4, 1,2; glucose, 11.1; EDTA, 0.023; gassed with […]; pH 7.4. The bladder is opened and then dut into strips 1-2 mm in width and 7-10 mm in length. The strips are subsequently suspended in a 10 mL tissue bath under an initial resting tension of 1.5 g. The strips are held in place by two surgical clips one of which is attached to a fixed hook while the other is attached to an isometric force transducer. […] The carbachol is then washed out and the tissue allowed to relax to its resting level of activity. Following a further 30 min period of recovery an additional 15 mM KCl are introduced into the tissue bath. This increase in KCl concentration results in a large increase in the amplitude of spontaneous contractions (and initiation of contractions in previously quiescent strips) superimposed upon a small increase in basal tone. Following stabilization of this enhanced level of contractile activity, incremental increases in the concentration of test compound or vehicle are introduced into the tissue bath. Contractile activity is measured for each compound or vehicle concentration during the last minute of a 30 minute challenge.
The isometric force developed by the bladder strips is measured using a […] to elicit 50% inhibition of pre-drug contractile activity (IC50 concentration) and is calculated from this concentration-response curve.

Row | SMILES | IC50 [nM]
1 | CCC(C)(C)Nc1c(NCc2ccc(C)cc2C)c(=O)c1=O [Example 79, 3-(2.4-Dimethyl-benzylamino)-4-(1,1-dimethyl-propylamino)-cyclobut-3-ene-1,2-dione] | 530 ± 230
2 | Cc1cccc(C)c1CNc1c(NCC(F)(F)C(F)(F)F)c(=O)c1=O [Example 54, 3-(2,6-Dimethyl-benzylamino)-4-(2,2,3,3,3-pentafluoro-propylamino)-cyclobut-3-ene-1,2-dione] | 17800
3 | Cc1cc(C#N)cc(Cl)c1CNc1c(N[C@H](C)C(C)(C)C)c(=O)c1=O [Example 34, 3-Chloro-4-{[3,4-dioxo-2-(1,2,2-trimethyl-propylamino)-cyclobut-1-enylamino]-methyl}-5-methyl-benzonitrile] | 1900 ± 1100
4 | Cc1cc(C)c(CNc2c(NC(C)(C)C)c(=O)c2=O)c(C)c1 [Example 9, 3-tert-Butylamino-4-(2,4,6-trimethyl-benzylamino)-cyclobut-3-ene-1,2-dione] | 1800 ± 700
5 | CCC(C)(C)Nc1c(NCc2c(C)cc(C)cc2C)c(=O)c1=O [Example 81, 3-(1,1-Dimethyl-propylamino)-4-(2,4,6-trimethyl-benzylamino)-cyclobut-3-ene-1,2-dione] | 310 ± 80
6 | CCC(C)(C)Nc1c(NCc2ccc(F)c(F)c2)c(=O)c1=O [Example 70, 3-(3,4-Difluoro-benzylamino)-4-(1,1-dimethyl-propylamino)-cyclobut-3-ene-1,2-dione] | 1600 ± 770
7 | CC(C)(C)Nc1c(NCc2cc(Cl)ccc2Cl)c(=O)c1=O [Example 82, 3-tert-Butylamino-4-(2,5-dichloro-benzylamino)-cyclobut-3-ene-1,2-dione] | 680 ± 240
8 | CCCCNc1c(NCc2ccc(C#N)cc2CC)c(=O)c1=O [Example 24, 4-[(2-Butylamino-3,4-dioxo-cyclobut-1-enylamino)-methyl]-3-ethyl-benzonitrile] | 27100 ± 4000
9 | CC(C)(C)Nc1c(NCc2ccc(C#N)c(Cl)c2)c(=O)c1=O [Example 43, 4-[(2-tert-Butylamino-3,4-dioxo-cyclobut-1-enylamino)-methyl]-2-chloro-benzonitrile] | 1100 ± 100
10 | Cc1cccc(CNc2c(NC(C)(C)C)c(=O)c2=O)c1C [Example 23, 3-tert-Butylamino-4-(2,3-dimethyl-benzylamino)-cyclobut-3-ene-1,2-dione] | 2700 ± 300
11 | Cc1c(Cl)cccc1CNc1c(NC(C)(C)C)c(=O)c1=O [Example 96, 3-tert-Butylamino-4-(3-chloro-2-methyl-benzylamino)-cyclobut-3-ene-1,2-dione] | 1300 ± 300
12 | CCc1cc(CNc2c(NC(C)(C)C)c(=O)c2=O)ccc1C#N [Example 46, 4-[(2-tert-Butylamino-3,4-dioxo-cyclobut-1-enylamino)-methyl]-2-ethyl-benzonitrile] | 6100 ± 3800
13 | Cc1cc(C#N)ccc1CNc1c(N[C@H](C)C(C)(C)C)c(=O)c1=O [Example 55, 4-{[3,4-Dioxo-2-(1,2,2-trimethyl-propylamino)-cyclobut-1-enylamino]-methyl}-3-methyl-benzonitrile] | 1500 ± 400
14 | CC(C)(C)Nc1c(NCc2ccc(F)cc2Cl)c(=O)c1=O [Example 60, 3-tert-Butylamino-4-(2-chloro-4-fluoro-benzylamino)-cyclobut-3-ene-1,2-dione] | 1400 ± 400
15 | CC(=O)N(Cc1ccc(C#N)cc1Cl)c1c(NC(C)(C)C)c(=O)c1=O [Example 98, N-(2-tert-Butylamino-3,4-dioxo-cyclobut-1-enyl)-N-(2-chloro-4-cyano-benzyl)-acetamide] | 20300 ± 790
16 | CCC(C)(C)Nc1c(NCc2cccc(C)c2C)c(=O)c1=O [Example 80, 3-(2,3-Dimethyl-benzylamino)-4-(1,1-dimethyl-propylamino)-cyclobut-3-ene-1,2-dione] | 5000 ± 3500

Row | SMILES | IC50 [nM]
17 | CC(C)(C)Nc1c(NCc2c(Cl)cccc2Cl)c(=O)c1=O [Example 10, 3-tert-Butylamino-4-(2,6-dichloro-benzylamino)-cyclobut-3-ene-1,2-dione] | 1110 ± 410
18 | C[C@@H](Nc1c(NCc2ccc(F)c(Cl)c2)c(=O)c1=O)C(C)(C)C [Example 69, 3-(3-Chloro-4-fluoro-benzylamino)-4-(1,2,2-trimethyl-propylamino)-cyclobut-3-ene-1,2-dione] | 5400 ± 2100
19 | CCC(C)(C)Nc1c(NCc2cc(C)ccc2C)c(=O)c1=O [Example 94, 3-(2,5-Dimethyl-benzylamino)-4-(1,1-dimethyl-propylamino)-cyclobut-3-ene-1,2-dione] | 1910 ± 840
20 | CCc1cc(C#N)ccc1CNc1c(NC(C)C)c(=O)c1=O [Example 25] | 31000 ± 4500
21 | CC(C)(C)Nc1c(NCc2cc(C(F)(F)F)ccc2F)c(=O)c1=O [Example 64, 3-tert-Butylamino-4-(2-fluoro-5-trifluoromethyl-benzylamino)-cyclobut-3-ene-1,2-dione] | 4900 ± 2700
22 | Cc1cc(Br)cc(C)c1CNc1c(N[C@H](C)C(C)(C)C)c(=O)c1=O [Example 35, 3-(4-Bromo-2,6-dimethyl-benzylamino)-4-(1,2,2-trimethyl-propylamino)-cyclobut-3-ene-1,2-dione] | 8900 ± 3000
23 | CC(C)(C)Nc1c(NCc2cc(F)cc(C(F)(F)F)c2)c(=O)c1=O [Example 72, 3-tert-Butylamino-4-(3-fluoro-5-trifluoromethyl-benzylamino)-cyclobut-3-ene-1,2-dione] | 6500 ± 3600
24 | CC(C)(C)Nc1c(NCc2c(F)cccc2F)c(=O)c1=O [Example 19, 3-tert-Butylamino-4-(2,6-difluoro-benzylamino)-cyclobut-3-ene-1,2-dione] | 7500 ± 4500
25 | CCC(C)(C)Nc1c(NCc2c(C)cc(Br)cc2C)c(=O)c1=O [Example 37, 3-(4-Bromo-2,6-dimethyl-benzylamino)-4-(1,1-dimethyl-propylamino)-cyclobut-3-ene-1,2-dione] | 1200 ± 1100
26 | COc1cccc(CNc2c(NC(C)(C)C)c(=O)c2=O)c1OC [Example 20, 3-tert-Butylamino-4-(2,3-dimethoxy-benzylamino)-cyclobut-3-ene-1,2-dione] | 8600 ± 3500
27 | CCC(C)(C)Nc1c(NCc2ccc(C#N)c(Cl)c2)c(=O)c1=O [Example 44, 2-Chloro-4-{[2-(1,1-dimethyl-propylamino]-3,4-dioxo-cyclobut-1-enylamino)-methyl}-benzonitrile] | 260 ± 15
28 | CC(C)(C)Nc1c(NCc2cc(Cl)cc(Cl)c2)c(=O)c1=O [Example 89, 3-tert-Butylamino-4-(3.5-dichloro-benzylamino)-cyclobut-3-ene-1,2-dione] | 2300 ± 850
29 | CCC(C)(C)Nc1c(NCc2cc(Cl)ccc2Cl)c(=O)c1=O [Example 83, 3-(2.5-Dichloro-benzylamino)-4-(1,1-dimethyl-propylamino)-cyclobut-3-ene-1,2-dione] | 810 ± 320
30 | C[C@@H](Nc1c(NCc2ccc(F)cc2C(F)(F)F)c(=O)c1=O)C(C)(C)C [Example 61, 3-(4-Fluoro-2-trifluoromethyl-benzylamino)-4-(1,2,2-trimethyl-propylamino)-cyclobut-3-ene-1,2-dione] | 1700 ± 1000
31 | CCC(C)(C)Nc1c(NCc2cccc(Cl)c2Cl)c(=O)c1=O [Example 99, 3-(2,3-Dichloro-benzylamino)-4-(1,1-dimethyl-propylamino)-cyclobut-3-ene-1,2-dione] | 790 ± 470

Same assay, conditions: Rattus norvegicus, 0.5 h; read-out: Percent contraction at 30 μM (C)

Row | SMILES | percent contraction at 30 µM [%]
32 | Cc1cc(C)c(CNc2c(N[C@H](C)C(C)(C)C)c(=O)c2=O)c(Cl)c1 [Example 38, 3-(2-Chloro-4,6-dimethyl-benzylamino)-4-(1,2,2-trimethyl-propylamino)-cyclobut-3-ene-1,2-dione] | 200

Same assay, conditions: Rattus norvegicus; read-out: Percent inhibition at 30 μM (I)

Row | SMILES | inhibition at 30 µM [%]
33 | Cc1cccc(Cl)c1CNc1c(N[C@H](C)C(C)(C)C)c(=O)c1=O [Example 29, 3-(2-Chloro-6-methyl-benzylamino)-4-(1,2,2-trimethyl-propylamino)-cyclobut-3-ene-1,2-dione] | 38.6 ± 3.6
34 | Cc1cccc(C)c1CNc1c(NCC(F)(F)C(F)(F)F)c(=O)c1=O [Example 54, 3-(2,6-Dimethyl-benzylamino)-4-(2,2,3,3,3-pentafluoro-propylamino)-cyclobut-3-ene-1,2-dione] | 46
35 | CCC(C)(C)Nc1c(NCc2cc(C)cc(C)c2)c(=O)c1=O [Example 87, 3-(3.5-Dimethyl-benzylamino)-4-(1,1-dimethyl-propylamino)-cyclobut-3-ene-1,2-dione] | 13.6 ± 8.4
36 | Cc1ccc(CNc2c(NC(C)(C)C)c(=O)c2=O)cc1Cl [Example 90, 3-tert-Butylamino-4-(3-chloro-4-methyl-benzylamino)-cyclobut-3-ene-1,2-dione] | 16.6 ± 3.6
37 | CCC(CC)Nc1c(NCc2cc(C)cc(C#N)c2)c(=O)c1=O [Example 13, 3-{[2-(1-Ethyl-propylamino)-3,4-dioxo-cyclobut-1-enylamino]-methyl}-5-methyl-benzonitrile] | 19.1 ± 1.7
38 | CCC(C)(C)Nc1c(NCc2ccc(C)c(Cl)c2)c(=O)c1=O [Example 91, 3-(3-Chloro-4-methyl-benzylamino)-4-(1,1-dimethyl-propylamino)-cyclobut-3-ene-1,2-dione] | 30.7 ± 6.7
39 | CCC(C)(C)Nc1c(NCc2ccc(C)c(C)c2)c(=O)c1=O [Example 85, 3-(3A-Dimethyl-benzylamino)-4-(1,1-dimethyl-propylamino)-cyclobut-3-ene-1,2-dione] | 35.1 ± 4.4

Reference: patent US5780505A, “Substituted N-arylmethylamino derivatives of cyclobutene-3, 4-diones” (American Home Products Corporation, priority 1997, dated 1998)
